Data: patent publication US6958318B2, “Recombinant bacterial cells for delivery of PNP to tumor cells” (The UAB Research Foundation, priority 1993, dated 2005)
Values joined by “and” are separate entries in the source; they are usually repeats but may differ in a detail not shown here. Equal values may be shown once. “Also recorded” adds a separate entry of the source. Read-outs that look alike come from different tables or passages of the source.

Key:
E. coli PNP = E. coli PNP (Escherichia coli, UniProt P0ABP8); type: biochemical
human PNP = target: T1, human PNP (Homo sapiens, UniProt P00491); test: Cleavage of purine analog nucleosides by human PNP (HPLC); type: biochemical; conditions: for Percent of substrate cleaved by Human PNP, 1 mM: substrate 1 mM
T1 sequence (P00491 1-289): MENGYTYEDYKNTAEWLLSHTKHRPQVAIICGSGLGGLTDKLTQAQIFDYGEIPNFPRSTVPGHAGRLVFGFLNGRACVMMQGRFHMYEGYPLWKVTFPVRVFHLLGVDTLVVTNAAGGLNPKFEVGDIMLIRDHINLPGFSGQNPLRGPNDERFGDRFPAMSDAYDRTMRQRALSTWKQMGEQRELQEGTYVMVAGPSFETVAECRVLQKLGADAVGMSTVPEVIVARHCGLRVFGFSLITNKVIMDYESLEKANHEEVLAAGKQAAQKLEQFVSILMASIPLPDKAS

[1] = literature; cited from earlier work
D54-PNP tumors = test: E. coli PNP-transduced D54 glioma tumors in nude mice; type: in vivo; conditions: previous studies
Experimental: Female athymic nude mice (nu/nu) were implanted sc with 2×10^7 cells of either D54 parental tumor cells (D54-wt) or D54 tumor cells that had been transduced with the E. coli PNP (D54-PNP). After the tumors had grown to approximately 150 mg, they were treated ip with either vehicle or 67 mg/kg of MeP-dR (IP) once a day for 3 days (days 6, 7 and 8 after implantation). The tumor sizes were measured twice a week after treatment.
A confirmation experiment was set up exactly as described above, except that animals were treated with two doses of MeP-dR (45 and 67 mg/kg) (FIGS. 10 and 11). The results of this experiment were similar (Table V). There were 8 of 10 complete regressions in mice bearing the D54-PNP tumors that were treated with 67 mg/kg of MeP-dR. In 4 mice the tumors subsequently returned and grew. There were still 4 of 10 tumor-free survivors 60 days after the treatment had stopped. […] There were 2 of 10 complete regressions and 3 partial responses. […] The delay in the time required to double twice due to treatment with MeP-dR was 5 to 6 days in the non-transduced tumors and greater than 24 days in transduced tumors. In this experiment, the growth rate of the D54-PNP tumors was considerably slower than it was in the first experiment. There was no change in the growth rate of the D54-wt tumors. The reason for the slow growth rate of the D54-PNP tumors in this experiment is not known. […] (In other words, if a tumor was too small to measure, it was not included in the average size). This means that the overall tumor regressions in the D54 PNP group are actually much more pronounced than they appear in FIGS. 8-11.

[2] = tested on: tumor cells transduced with the E. coli PNP; test: Killing of PNP-transduced tumor cells in vitro by other prodrugs; type: cell-based
Excerpt: In addition to MeP-dR, two other prodrugs suitable for E. coli PNP activation in tumor cells can be applied to the methodology of the present invention. These prodrugs are F-araA and 2-F-2′deoxyadenosine. […] As desired, this dose had no effect on control untransduced, tumor cells.

D54 glioma tumors = test: D54 tumors of mixed wild-type and transduced cells (80 to 20); conditions: in vivo
PNP transduced tumors = type: in vivo
[3] = substrate 100 μM, 0.1 unit/ml enzyme, 25° C., 1 hour, stopped by boiling
[4] = 25° C., 1 hour, stopped by boiling
[5] = 100 μM in the presence of 1 mM deoxycytidine

E. coli PNP, sequence (P0ABP8 2-239): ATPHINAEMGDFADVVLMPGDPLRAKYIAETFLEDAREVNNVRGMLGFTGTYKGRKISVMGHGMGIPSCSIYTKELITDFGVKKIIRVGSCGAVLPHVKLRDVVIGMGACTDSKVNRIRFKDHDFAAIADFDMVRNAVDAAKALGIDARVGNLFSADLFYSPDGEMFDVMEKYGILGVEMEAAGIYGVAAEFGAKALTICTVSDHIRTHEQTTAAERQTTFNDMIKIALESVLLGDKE

Compound: Nc1cc(Cl)c2ncn([C@@H]3O[C@H](CO)[C@@H](O)[C@H]3O)c2n1 [1-deaza-2-amino-6-Cl-purine-riboside, 2-amino-6-chloro-1-deazapurine riboside]
- Percent of substrate cleaved by E. coli PNP, 100 μM (E. coli PNP): 62(87)16(23) Percent and 41(86)15(21) Percent
- Percent of substrate cleaved by E. coli PNP, 1 mM (E. coli PNP): 62(87)16(23) Percent and 41(86)15(21) Percent
- Substrate quality for bacterial (E. coli) PNP (E. coli PNP): good substrates
- Substrate quality for mammalian (human) PNP (human PNP; in words): poor substrates
- Percent of substrate cleaved by Human PNP, 100 μM (human PNP; [3]): 0(88) Percent and 0(86) Percent
- Percent of substrate cleaved by Human PNP, 1 mM (human PNP; [4]): 0(52) Percent and 0(47) Percent
- Toxicity of prodrug relative to its purine analog [1]: much less toxic than their respective purine analogs

Compound: Nc1nc(F)nc2c1ncn2[C@@H]1O[C@H](CO)[C@@H](O)[C@H]1F [2-F-2′-F-2′-deoxyadenosine]
- Percent of substrate cleaved by E. coli PNP, 100 μM (E. coli PNP): 0(86) Percent
- Percent of substrate cleaved by E. coli PNP, 1 mM (E. coli PNP): 0(21) Percent
- Substrate quality for bacterial (E. coli) PNP (E. coli PNP): poor substrates

Compound: C[C@H]1O[C@@H](n2cnc3c(N)nc(F)nc32)[C@H](O)[C@@H]1O [2-F-5′-deoxyadenosine, 2-fluoro-5′-deoxyadenosine]
- Substrate quality for bacterial (E. coli) PNP (E. coli PNP): good substrates
- Substrate quality for mammalian (human) PNP (human PNP; in words): poor substrates

Compound: Nc1ncnc2c1ncn2[C@H]1CC[C@@H](CO)O1 [2′,3′-dideoxy adenosine, 2′,3′-dideoxyadenosine]
- Substrate quality for bacterial (E. coli) PNP (E. coli PNP): poor substrates
- Substrate quality for mammalian (human) PNP (human PNP; in words): poor substrates

Compound: Nc1ncnc2c1ncn2[C@@H]1O[C@H](CO)C[C@H]1O [3′-deoxy adenosine, 3′-deoxyadenosine]
- Substrate quality for bacterial (E. coli) PNP (E. coli PNP): poor substrates
- Substrate quality for mammalian (human) PNP (human PNP; in words): poor substrates

Compound: NC[C@H]1O[C@@H](n2cnc3c(N)ncnc32)[C@H](O)[C@@H]1O [5′-amino-5′-deoxyadenosine]
- Substrate quality for bacterial (E. coli) PNP (E. coli PNP): moderate substrates; also recorded: poorly cleaved
- Substrate quality for mammalian (human) PNP (human PNP; in words): not cleaved
- Substrate quality for mammalian (human) PNP (human PNP; in words, listed as 50-amino-50-deoxyadenosine): poor substrates

Compound: NC(=O)[C@H]1O[C@@H](n2cnc3c(N)ncnc32)[C@H](O)[C@@H]1O [5′-carboxamide of adenosine]
- Substrate quality for bacterial (E. coli) PNP (E. coli PNP): poor substrates
- Percent of substrate cleaved by Human PNP, 100 μM (human PNP): 0(81) Percent and 0(82) Percent
- Substrate quality for mammalian (human) PNP (human PNP): poor substrates

Compound: Nc1cc2ncn(C3O[C@H](CO)[C@@H](O)[C@H]3O)c2c(=O)[nH]1 (stereo partly shown) [7-ribosyl-3-deazaguanine]
- Substrate quality for bacterial (E. coli) PNP (E. coli PNP): good substrates
- Substrate quality for mammalian (human) PNP (human PNP; in words): poor substrates
- Toxicity of prodrug relative to its purine analog [1]: much less toxic than their respective purine analogs

Compound: OC[C@H]1OC(n2cnc3ncnc(S)c32)[C@H](O)[C@@H]1O (stereo partly shown) [7-ribosyl-6-mercaptopurine]
- Substrate quality for mammalian (human) PNP (human PNP; in words): poor substrates

Compound: O=c1[nH]cnc2ncn(C3O[C@H](CO)[C@@H](O)[C@H]3O)c12 (stereo partly shown) [7-ribosyl-hypoxanthine, 7-ribosylhypoxanthine]
- Substrate quality for bacterial (E. coli) PNP (E. coli PNP): moderate to good substrates
- Substrate quality for mammalian (human) PNP (human PNP; in words): moderate to good substrates

Compound: Nc1nc(F)nc2c1ncn2[C@H]1C[C@H](O)[C@@H](CO)O1 [F-dAdo, 2-fluoro-2′-deoxyadenosine]
- Substrate quality for bacterial (E. coli) PNP (E. coli PNP): good substrates
- Substrate quality for mammalian (human) PNP (human PNP; in words): poor substrates
- Activity against D54 glioma tumors expressing the E. coli PNP gene (D54-PNP tumors): good activity
- Killing of PNP-transduced tumor cells in vitro [2]: high level killing
- Effect on control untransduced tumor cells [2, 5]: no effect
- Killing when as few as 1% of tumor cells express the gene [2, 5]: kills cells transduced with the E. coli PNP
- Activity against tumors of wild-type and transduced cells at 80 to 20 (D54 glioma tumors): less active
- Tolerability in mice (PNP transduced tumors; doses similar to MeP-dR): without toxicity
- Anti-tumor effect on PNP transduced tumors in mice (PNP transduced tumors; mouse, in vivo): strong anti-tumor effects

Compound: CC1(C)OC2C(C(N)=O)OC(n3cnc4c(N)ncnc43)C2O1 (stereo not shown) [isopropylidine of the 5′-carboxamide of adenosine]
- Substrate quality for bacterial (E. coli) PNP (E. coli PNP): poor substrates
- Percent of substrate cleaved by Human PNP, 100 μM (human PNP): 0(81) Percent and 0(82) Percent
- Substrate quality for mammalian (human) PNP (human PNP): poor substrates

Compound: Nc1ncnc2c1ncn2C1OC(CO)C(O)C1O (stereo not shown) [xylosyl adenine]
- Percent of substrate cleaved by Human PNP, 100 μM (human PNP; [3]): 0(81) Percent and 0(82) Percent

Compound: Nc1ncnc2c1ncn2[C@H]1O[C@H](CO)[C@@H](O)[C@H]1O [α-adenosine]
- Substrate quality for bacterial (E. coli) PNP (E. coli PNP): poorly cleaved
- Percent of substrate cleaved by Human PNP, 100 μM (human PNP; # line: assay terminated by filtering and not by boiling): 0(87**) Percent
- Substrate quality for mammalian (human) PNP (human PNP; in words): poor substrates; also recorded: not cleaved
- Percent of substrate cleaved by Human PNP, 100 μM (human PNP; [3]): 0(88) Percent and 0(86) Percent
- Percent of substrate cleaved by Human PNP, 1 mM (human PNP; [4]): 0(50) Percent and 0(47) Percent

Compound: xylosyl methylpurine [xylosylmethylpurine]
- Percent of substrate cleaved by E. coli PNP, 100 μM (E. coli PNP): 0(86) Percent
- Percent of substrate cleaved by E. coli PNP, 1 mM (E. coli PNP): 0(21) Percent
- Substrate quality for bacterial (E. coli) PNP (E. coli PNP): poor substrates
- Substrate quality for mammalian (human) PNP (human PNP; in words): poor substrates
- Percent of substrate cleaved by Human PNP, 100 μM (human PNP; [3]): 0(88) Percent and 0(86) Percent
- Percent of substrate cleaved by Human PNP, 1 mM (human PNP; [4]): 0(50) Percent and 0(47) Percent
